Molecules are shown by their SMILES. Several values for one entry are separate records, joined by “and”; a condition that tells them apart may be missing. Equal entries are not always repeated. Inconclusive results and toxic doses are left out.

The subject of the assay is CD2F1 mice, L1210 leukemia ip, survival T/C. Put plainly: NCI In Vivo Anticancer Drug Screen. Data for tumor model L1210 Leukemia (intraperitoneal) in CD2F1 (CDF1) mice. Particulars: endpoint: mean survival time, higher = longer survival. In a few lines:
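Ratio T/C, where T is the treated-group value and C the vehicle-dosed control value, from mice implanted with a transplantable tumor.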

Where [1] appears, read: dose: 100.0 mg/kg/injection, schedule: Q04DX002 (ip), vehicle: saline with Tween-80.
The mark [2] stands for this setting: dose: 200.0 mg/kg/injection, schedule: Q04DX002 (ip), vehicle: saline with Tween-80.
[3] abbreviates: dose: 400.0 mg/kg/injection, schedule: Q04DX002 (ip), vehicle: saline with Tween-80.
[4] abbreviates: dose: 100.0 mg/kg/injection, schedule: Q01DX001 (ip), vehicle: saline.
Setting [5] is: dose: 200.0 mg/kg/injection, schedule: Q01DX001 (ip), vehicle: saline.
Setting [6] is: dose: 400.0 mg/kg/injection, schedule: Q01DX001 (ip), vehicle: saline.
Setting [7] is: dose: 100.0 mg/kg/injection, schedule: Q04DX003 (ip), vehicle: saline with Tween-80.
[8] abbreviates: dose: 200.0 mg/kg/injection, schedule: Q04DX003 (ip), vehicle: saline with Tween-80.
[9] abbreviates: dose: 400.0 mg/kg/injection, schedule: Q04DX003 (ip), vehicle: saline with Tween-80.
Where [10] appears, read: dose: 50.0 mg/kg/injection, schedule: Q01DX009 (ip), vehicle: saline.
[11] abbreviates: dose: 100.0 mg/kg/injection, schedule: Q01DX009 (ip), vehicle: saline with Tween-80.
Where [12] appears, read: dose: 200.0 mg/kg/injection, schedule: Q01DX009 (ip), vehicle: saline with Tween-80.
The mark [13] stands for this setting: dose: 400.0 mg/kg/injection, schedule: Q01DX009 (ip), vehicle: saline with Tween-80.
[14] abbreviates: dose: 100.0 mg/kg/injection, schedule: Q01DX009 (ip), vehicle: saline.
Where [15] appears, read: dose: 200.0 mg/kg/injection, schedule: Q01DX009 (ip), vehicle: saline.
Where [16] appears, read: dose: 100.0 mg/kg/injection, schedule: Q04DX003 (ip), vehicle: Klucel (hydroxypropylcellulose) (HPC).
[17] abbreviates: dose: 50.0 mg/kg/injection, schedule: Q01DX009 (ip), vehicle: saline with Tween-80.
[18] abbreviates: dose: 75.0 mg/kg/injection, schedule: Q01DX001 (ip), vehicle: saline.
[19] abbreviates: dose: 150.0 mg/kg/injection, schedule: Q01DX001 (ip), vehicle: saline.

In the case of `O=S(O)OS(=O)O`, the T/C reads like this: (dose: 37.5 mg/kg/injection, schedule: Q01DX009 (ip), vehicle: saline) 89 % of control; (dose: 75.0 mg/kg/injection, schedule: Q01DX009 (ip), vehicle: saline) 91 % of control; (dose: 100.0 mg/kg/injection, schedule: Q04DX003 (ip), vehicle: saline) 101 % of control; (dose: 150.0 mg/kg/injection, schedule: Q01DX009 (ip), vehicle: saline) 93 % of control; (dose: 200.0 mg/kg/injection, schedule: Q04DX003 (ip), vehicle: saline) 101 % of control; (dose: 300.0 mg/kg/injection, schedule: Q01DX009 (ip), vehicle: saline) 91 % of control. For the same compound, where the note is “dose: 400.0 mg/kg/injection, schedule: Q04DX003 (ip), vehicle: saline”, the T/C was 96 % of control.

As to `CCOc1nc(-c2ccccc2)nc(N)c1Cl`, the T/C is 98 % of control under setting [1], 98 % of control under setting [2] and 98 % of control under setting [3].

In the case of `O=C1[O][Hg][c]2cc([N+](=O)[O-])cc3cccc1c23.O=C1[O][Hg][c]2cccc3cc([N+](=O)[O-])cc1c23`, the T/C is, setting by setting: under setting [4], 94 % of control; under setting [5], 94 % of control; under setting [6], 94 % of control.

With `CC(=O)NC1CC(n2cnc3c(=O)[nH]cnc32)OC1C(C)O` (stereo unspecified), the T/C runs as follows: (dose: 12.5 mg/kg/injection, schedule: Q01DX005 (ip), vehicle: water) 101 % of control; (dose: 25.0 mg/kg/injection, schedule: Q01DX005 (ip), vehicle: water) 98 % of control; (dose: 50.0 mg/kg/injection, schedule: Q01DX005 (ip), vehicle: water) 101 % of control; (dose: 100.0 mg/kg/injection, schedule: Q01DX005 (ip), vehicle: water) 98 % of control; (dose: 200.0 mg/kg/injection, schedule: Q01DX005 (ip), vehicle: water) 92 % of control.

Consider `CCCCCCCCCCCCOC(=O)C[n+]1cccc(C(=O)NCc2ccccc2)c1`, for which the T/C is 108 % of control (dose: 6.25 mg/kg/injection, schedule: Q04DX003 (ip), vehicle: saline with Tween-80); 104 % of control (dose: 12.5 mg/kg/injection, schedule: Q04DX003 (ip), vehicle: saline with Tween-80); 106 % of control (dose: 25.0 mg/kg/injection, schedule: Q04DX003 (ip), vehicle: saline with Tween-80).

On to `CCCCCCCCCCC(=O)CCCC`, for which the T/C by setting is: under setting [7], 98 % of control; under setting [8], 94 % of control; under setting [9], 100 % of control.

As to `NC(N)=N/N=C(/c1ccccc1)c1ccc(F)cc1`, the T/C under setting [10] is 101 % of control.

With `CCOC(=O)C(C(C)=O)C(=O)c1ccc([N+](=O)[O-])cc1` (stereo unspecified), the T/C runs as follows: under setting [11], 102 % of control; under setting [7], 100 % of control; under setting [12], 101 % of control; under setting [8], 102 % of control; under setting [13], 98 % of control; under setting [9], 100 % of control.

Consider `COc1ccc(/C(C#N)=C2\OC(=O)c3ccccc32)cc1OC`, for which the T/C is 93 % of control under setting [10]; 94 % of control under setting [14]; 94 % of control under setting [15]; 94 % of control (dose: 400.0 mg/kg/injection, schedule: Q01DX009 (ip), vehicle: saline).

For the compound `[O-][n+]1onc2ccc(Cl)cc21`, the T/C under setting [16] was 102 % of control.

As for `COc1cccc(N=Nc2c(N)nc(N)nc2N)c1`, the T/C under setting [17] is 97 % of control.

Take `CC1(CC(=O)O)NC(=O)NC1=O` (stereo unspecified): the T/C is, setting by setting: under setting [4], 102 % of control; under setting [1], 96 % of control; under setting [5], 97 % of control; under setting [2], 101 % of control; under setting [6], 100 % of control; under setting [3], 96 % of control.

As for `c1ccc(-c2nc(-c3nn[nH]n3)c3ccccc3n2)cc1`, the T/C reads like this: under setting [4], 89 % of control; under setting [5], 97 % of control.

Take `ClC1(Cl)OC(Cl)(Cl)C(Cl)(Cl)OC1(Cl)Cl`: the T/C is 95 % of control (dose: 50.0 mg/kg/injection, schedule: Q04DX003 (ip), vehicle: other); 91 % of control (dose: 100.0 mg/kg/injection, schedule: Q04DX003 (ip), vehicle: other); 97 % of control (dose: 200.0 mg/kg/injection, schedule: Q04DX003 (ip), vehicle: other).

Take `Nc1nc2c(ncn2-c2ccc3ccccc3c2)c(=O)[nH]1`: the T/C is, setting by setting: (dose: 100.0 mg/kg/injection, schedule: Q01DX001 (ip), vehicle: saline with Tween-80) 91 % of control; (dose: 200.0 mg/kg/injection, schedule: Q01DX001 (ip), vehicle: saline with Tween-80) 88 % of control; (dose: 400.0 mg/kg/injection, schedule: Q01DX001 (ip), vehicle: saline with Tween-80) 95 % of control.

With `NC(=S)N/N=C\c1nccc2c(N)cccc12`, the T/C is, setting by setting: (dose: 12.5 mg/kg/injection, schedule: Q01DX009 (ip), vehicle: saline with Tween-80) 124 % of control; (dose: 25.0 mg/kg/injection, schedule: Q01DX009 (ip), vehicle: saline with Tween-80) 124 % of control; under setting [17], 161 % of control; (dose: 75.0 mg/kg/injection, schedule: Q01DX009 (ip), vehicle: saline with Tween-80) 121 % of control and 124 % of control.

As to `COc1cccc(OC)c1C(c1c(OC)cccc1OC)c1c(OC)cccc1OC`, the T/C by setting is: under setting [11], 98 % of control; under setting [12], 103 % of control; under setting [13], 102 % of control.

Take `Cn1cccc1-c1cccnc1`: the T/C under setting [18] is 97 % of control and the T/C under setting [19] was 100 % of control.

As to `COc1ccc(OCCC(=O)O)cc1`, the T/C by setting is: under setting [10], 119 % of control; under setting [14], 105 % of control; under setting [15], 105 % of control.

As for `COc1ccc2c(c1)N(CCC1CCCCN1C)c1ccccc1S2` (stereo unspecified), the T/C is 93 % of control and 100 % of control (dose: 6.25 mg/kg/injection, schedule: Q04DX003 (ip), vehicle: saline); 97 % of control (dose: 12.5 mg/kg/injection, schedule: Q04DX003 (ip), vehicle: Klucel (hydroxypropylcellulose) (HPC)); 98 % of control and 100 % of control (dose: 12.5 mg/kg/injection, schedule: Q04DX003 (ip), vehicle: saline); 95 % of control (dose: 25.0 mg/kg/injection, schedule: Q04DX003 (ip), vehicle: Klucel (hydroxypropylcellulose) (HPC)); 101 % of control and 102 % of control (dose: 25.0 mg/kg/injection, schedule: Q04DX003 (ip), vehicle: saline); 97 % of control (dose: 50.0 mg/kg/injection, schedule: Q04DX003 (ip), vehicle: Klucel (hydroxypropylcellulose) (HPC)). Moreover, the T/C is, setting by setting: (dose: 50.0 mg/kg/injection, schedule: Q04DX003 (ip), vehicle: saline) 106 % of control; under setting [16], 103 % of control.

As to `O=[N+]([O-])c1ccc(C(O)C(Br)[N+](=O)[O-])cc1` (stereo unspecified), the T/C under setting [11] is 93 % of control; the T/C under setting [7] was 101 % of control; the T/C under setting [12] was 94 % of control; the T/C under setting [8] was 98 % of control; the T/C under setting [13] is 87 % of control; the T/C under setting [9] was 95 % of control.

For the compound `c1ccc2c(c1)Cc1cc3ccccc3nc1-2`, the T/C under setting [18] is 102 % of control; the T/C under setting [19] is 97 % of control; the T/C (dose: 300.0 mg/kg/injection, schedule: Q01DX001 (ip), vehicle: saline) was 101 % of control.

With `Oc1ccccc1C=NCCN=Cc1ccccc1O`, the T/C under setting [7] is 90 % of control, the T/C under setting [8] is 100 % of control and the T/C under setting [9] was 92 % of control.

Turning to `O=[N+]([O-])c1ccc(Oc2c(Cl)cc(Cl)c(Cl)c2Cl)c([N+](=O)[O-])c1`, the T/C is, setting by setting: (dose: 75.0 mg/kg/injection, schedule: Q01DX001 (ip), vehicle: other) 100 % of control; (dose: 150.0 mg/kg/injection, schedule: Q01DX001 (ip), vehicle: other) 102 % of control; (dose: 300.0 mg/kg/injection, schedule: Q01DX001 (ip), vehicle: other) 94 % of control.

The values above are taken from PubChem BioAssay AID256 (DTP/NCI, 2004).
